# In the supplement of paper PMC13380429:
# How the values were obtained:
# Conditions in all cases: 72 h
# Caco-2 [1] = test: cell viability relative to DMSO; higher = less toxic
# Calu-3 [2] = test: as above
# HepG2 [3] = test: as above
# U2OS [4] = test: as above
# Vero E6 [5] = test: as above
# Caco-2 [6] = test: relative viability EC50 (midpoint between 100% and the lowest measured viability); higher = less toxic
# Calu-3 [7] = test: as above
# HepG2 [8] = test: as above
# U2OS [9] = test: as above
# Vero E6 [10] = test: as above
# Caco-2 [11] = test: drug sensitivity score (DSS) for viability; higher = more toxic; extreme values may be limits of the assay
# Calu-3 [12] = test: as above
# HepG2 [13] = test: as above
# U2OS [14] = test: as above
# Vero E6 [15] = test: as above
Structure (SMILES),cell viability (Caco-2 [1]; 1 nM) [%],cell viability (Caco-2 [1]; 10 nM) [%],cell viability (Caco-2 [1]; 100 nM) [%],cell viability (Caco-2 [1]; 1000 nM) [%],cell viability (Caco-2 [1]; 10000 nM) [%],cell viability (Calu-3 [2]; 1 nM) [%],cell viability (Calu-3 [2]; 10 nM) [%],cell viability (Calu-3 [2]; 100 nM) [%],cell viability (Calu-3 [2]; 1000 nM) [%],cell viability (Calu-3 [2]; 10000 nM) [%],cell viability (HepG2 [3]; 1 nM) [%],cell viability (HepG2 [3]; 10 nM) [%],cell viability (HepG2 [3]; 100 nM) [%],cell viability (HepG2 [3]; 1000 nM) [%],cell viability (HepG2 [3]; 10000 nM) [%],cell viability (U2OS [4]; 1 nM) [%],cell viability (U2OS [4]; 10 nM) [%],cell viability (U2OS [4]; 100 nM) [%],cell viability (U2OS [4]; 1000 nM) [%],cell viability (U2OS [4]; 10000 nM) [%],cell viability (Vero E6 [5]; 1 nM) [%],cell viability (Vero E6 [5]; 10 nM) [%],cell viability (Vero E6 [5]; 100 nM) [%],cell viability (Vero E6 [5]; 1000 nM) [%],cell viability (Vero E6 [5]; 10000 nM) [%],relative viability EC50 (Caco-2 [6]) [µM],relative viability EC50 (Calu-3 [7]) [µM],relative viability EC50 (HepG2 [8]) [µM],relative viability EC50 (U2OS [9]) [µM],relative viability EC50 (Vero E6 [10]) [µM],drug sensitivity score (Caco-2 [11]),drug sensitivity score (Calu-3 [12]),drug sensitivity score (HepG2 [13]),drug sensitivity score (U2OS [14]),drug sensitivity score (Vero E6 [15])
N#Cc1ncccn1 [2-cyanopyrimidine],98.5,93.7,101,99.3,102,102,99.3,101,91.6,96.9,102,100,93.7,93.6,111,100,104,96.7,99.6,97.9,93.8,104,97,106,94.6,> 10,> 10,> 10,> 10,> 10,0,0,0,0,0
C=CCN1CCN(c2nc3ccccc3nc2C#N)CC1 [3-AQC],102,99.9,103,101,95.2,94.7,98,101,103,98.1,94,104,96.6,97.5,94.2,100,101,101,97.9,97.1,94.9,102,92.6,104,108,> 10,> 10,> 10,> 10,> 10,0,0,0,0,0
Cc1ccc(C[N+](C)(C)C)o1 [5-methylfurmethiodide],99.1,105,103,96.3,108,108,103,93.9,100,101,104,108,93.8,103,90.2,101,99.7,102,98.7,103,104,103,97.5,107,99.9,> 10,> 10,> 10,> 10,> 10,0,0,0,0,0
[N-]=[N+]=CC(=O)CC[C@H](N)C(=O)O [6-diazo-5-oxo-L-norleucine],95.4,90,97.8,95.8,92.7,102,90.6,96.4,95.2,98.1,97,105,98.8,97.2,112,104,102,104,98.3,104,94.2,95.8,86.8,95.6,103,> 10,> 10,> 10,> 10,> 10,0,0,0,0,0
CCCCC/C=C\C/C=C\C/C=C\C/C=C\CCCC(=O)Nc1ccc(O)cc1 [AM-404],95.3,98.2,103,100,95,104,93.1,96.8,99.1,102,110,104,93.9,107,87.6,96.9,95.2,100,93.8,96.3,105,106,92.9,102,96.5,> 10,> 10,> 10,> 10,> 10,0,0,0,0,0
COc1ccc2c(OCc3nnc4ccc(-c5ccccc5)nn34)ccnc2c1 [AMG-208],99.8,95.9,104,100,91,108,99.8,97.3,92.2,97,99.4,99.9,101,97,104,104,95.5,102,103,99,95.6,92.1,93.9,104,91.2,> 10,> 10,> 10,> 10,> 10,0,0,0,0,0
O=C(Nc1ccccc1C(=O)NC1CCCCNC1=O)c1cc2ccccc2s1 (stereo not given) [ANA-12],90.9,97.4,96.1,106,96.4,99.6,95.3,101,94.7,87.7,104,93.1,100,91.4,98.4,97.8,101,91.5,104,96.7,100,99.3,99.8,89.5,104,> 10,> 10,> 10,> 10,> 10,0,0.3,0,0,0
